pIC50: −log10 of the molar value.

The assay is described as follows: Inhibition of HSV-1 DNA polymerase in HSV-1 C42 plaque reduction assay. For orientation: Plaques are areas of infected cells; plaque reduction assays count them against a control.
A word on the pIC50: it is the negative decadic logarithm of the IC50, by convention in mol/L. Lower therefore signals a large IC50. As to `CCOC(=O)c1ccc(OC(=O)P(=O)(OC)OC)cc1` [4-(ethoxycarbonyl)phenyl dimethoxyphosphinecarboxylate oxide], the pIC50 is less than 3.30. To `COP(=O)(OC)C(=O)OCc1ccccc1` [benzyl dimethoxyphosphinecarboxylate oxide] belongs less than 3.30; to `O=C(Oc1ccc(Cl)cc1)P(=O)(O)O` [disodium (4-chlorophenoxy)carbonylphosphonate], 3.60; to `COP(=O)(OC)C(=O)Oc1ccc(Cl)c(Cl)c1` [3,4-dichlorophenyl dimethoxyphosphinecarboxylate oxide], less than 3.30. Compound `CCOC(=O)P(=O)(O)O` [disodium ethoxycarbonylphosphonate] showed a negative-log IC50 (pIC50) of less than 3.30. `CCCCOC(=O)P(=O)(OC)OC` [butyl dimethoxyphosphinecarboxylate oxide] showed a pIC50 of less than 3.30. Consider `CCOC(=O)c1ccc(OC(=O)P(=O)(O)O)cc1` [disodium [4-(ethoxycarbonyl)phenoxy]carbonylphosphonate], for which the pIC50 is less than 3.30. Regarding `O=C(OCC1CCCC1)P(=O)(O)O` [disodium (cyclopentylmethoxy)carbonylphosphonate], the pIC50 is less than 3.30. Consider `CCCCOP(=O)(OCCCC)C(=O)OC` [methyl dibutoxyphosphinecarboxylate oxide], for which the pIC50 was less than 3.30. To `CCOP(=O)(Oc1ccc2c(c1)CCC2)C(=O)OC` (stereo not given) [methyl (2,3-dihydro-1H-inden-5-yloxy)(ethoxy)phosphinecarboxylate oxide] belongs less than 3.30.

On to `O=C(O)P(=O)(O)Oc1ccc2c(c1)CCC2` [disodium (2,3-dihydro-1H-inden-5-yloxy)(oxido)phosphinecarboxylate oxide], for which the pIC50 was 4.14. Compound `CCOC(=O)c1ccc(OC(=O)P(=O)(OCC)OCC)cc1` [4-(ethoxycarbonyl)phenyl diethoxyphosphinecarboxylate oxide] showed a pIC50 of less than 3.30. With `CCOP(=O)(O)C(=O)Oc1ccc(Cl)cc1` [sodium ethyl (4-chlorophenoxy)carbonylphosphonate], the pIC50 is 3.30. In the case of `COP(=O)(O)C(=O)O` [disodium methoxy(oxido)phosphinecarboxylate oxide] it was less than 3.30; in that of `CCOP(=O)(Oc1ccc(OC)cc1)C(=O)Oc1ccccc1` (stereo not given) [phenyl (4-methoxyphenoxy)(ethoxy)phosphinecarboxylate oxide], 4.01; in that of `COC(=O)P(=O)(O)Oc1c(C)cccc1C` [sodium 2,6-dimethylphenyl methoxycarbonylphosphonate], less than 3.30. Consider `COP(=O)(OC)C(=O)OC(C)C` [isopropyl dimethoxyphosphinecarboxylate oxide], for which the pIC50 was less than 3.30.

As for `CCCCOP(=O)(O)C(=O)OC` [sodium butyl methoxycarbonylphosphonate], the pIC50 is less than 3.30. The compound `CCOP(=O)(Oc1ccc(C(C)=O)cc1)C(=O)OC` (stereo not given) [methyl (4-acetylphenoxy)(ethoxy)phosphinecarboxylate oxide] had a pIC50 of less than 3.30. `CCCCOC(=O)P(=O)(O)O` [disodium butoxycarbonylphosphonate] gave a pIC50 of less than 3.30.

Turning to `COC(=O)P(=O)(OC)OC12CC3CC(CC(C3)C1)C2` (stereo not given) [methyl (1-adamantyloxy)(methoxy)phosphinecarboxylate oxide], the pIC50 is less than 3.30. As to `COP(=O)(O)C(=O)Oc1ccccc1` [sodium methyl phenoxycarbonylphosphonate], the pIC50 was less than 3.30.

`O=C(O)P(=O)(O)O` had a pIC50 of 4.13.

With `CCOP(=O)(OCC)C(=O)Oc1ccc(OC)cc1` [4-methoxyphenyl diethoxyphosphinecarboxylate oxide], the pIC50 was less than 3.30. The compound `Cc1cccc(C)c1OP(=O)(O)C(=O)O` [disodium (2,6-dimethylphenoxy)(oxido)phosphinecarboxylate oxide] gave a pIC50 of less than 3.30. In the case of `O=C(O)P(=O)(O)Oc1ccccc1` [disodium oxido(phenoxy)phosphinecarboxylate oxide] it was 4.10. `Cc1ccc(OP(=O)(O)C(=O)O)cc1` [disodium (4-methylphenoxy)(oxido)phosphinecarboxylate oxide] showed a pIC50 of 4.06. Consider `COP(=O)(O)C(=O)OCc1ccccc1` [sodium methyl (benzyloxy)carbonylphosphonate], for which the pIC50 was less than 3.30. In the case of `Cc1ccc(OC(=O)P(=O)(O)O)cc1` [disodium (4-methylphenoxy)carbonylphosphonate], the pIC50 was less than 3.30.

The compound `CC(C)OC(=O)P(=O)(O)O` [disodium isopropoxycarbonylphosphonate] had a pIC50 of less than 3.30. Turning to `CCOP(=O)(O)C(=O)O` [disodium ethoxy(oxido)phosphinecarboxylate oxide], the pIC50 is less than 3.30. Compound `COP(=O)(OC)C(=O)OC1CCCCC1` [cyclohexyl dimethoxyphosphinecarboxylate oxide] showed a pIC50 of less than 3.30. Regarding `CCOC(=O)P(=O)(O)OCC` [sodium ethyl ethoxycarbonylphosphonate], the pIC50 was less than 3.30. On to `COc1ccc(OP(=O)(O)C(=O)O)cc1` [disodium (4-methoxyphenoxy)(oxido)phosphinecarboxylate oxide], for which the pIC50 is 4.05. Compound `COC(=O)P(=O)(O)Oc1ccc2c(c1)CCC2` [sodium 2,3-dihydro-1H-inden-5-yl methoxycarbonylphosphonate] showed a pIC50 of less than 3.30. To `O=C(Oc1ccccc1)P(=O)(O)Oc1ccccc1` [sodium phenyl phenoxycarbonylphosphonate] belongs 4.28; to `COP(=O)(OC)C(=O)Oc1ccc(C)cc1` [4-methylphenyl dimethoxyphosphinecarboxylate oxide], less than 3.30. In turn, `CCOP(=O)(Oc1c(C)cccc1C)C(=O)OC` (stereo not given) [methyl (2,6-dimethylphenoxy)(ethoxy)phosphinecarboxylate oxide] had a pIC50 of less than 3.30. Regarding `Cc1ccc(OP(=O)(O)C(=O)Oc2ccccc2)cc1` [sodium 4-methylphenyl phenoxycarbonylphosphonate], the negative-log IC50 (pIC50) was 4.27. With `O=C(Oc1ccccc1)P(=O)(Oc1ccccc1)Oc1ccccc1` [phenyl diphenoxyphosphinecarboxylate oxide], the pIC50 is 4.41.

In the case of `COP(=O)(OC)C(=O)Oc1ccccc1` [phenyl dimethoxyphosphinecarboxylate oxide], the pIC50 was less than 3.30. Take `CCOP(=O)(OCC)C(=O)Oc1ccc(Cl)cc1` [4-chlorophenyl diethoxyphosphinecarboxylate oxide]: the pIC50 was less than 3.30.

For the compound `CCOP(=O)(O)C(=O)Oc1ccc(OC)cc1` [sodium ethyl (4-methoxyphenoxy)carbonylphosphonate], the pIC50 is 3.78.

Take `CC(C)OP(=O)(OC(C)C)C(=O)Oc1ccc([N+](=O)[O-])cc1` [4-nitrophenyl diisopropoxyphosphinecarboxylate oxide]: the pIC50 was less than 3.30. Take `O=C(OCc1ccccc1)P(=O)(O)O` [disodium (benzyloxy)carbonylphosphonate]: the pIC50 is less than 3.30. As for `COc1ccc(OC(=O)P(=O)(O)O)cc1` [disodium (4-methoxyphenoxy)carbonylphosphonate], the pIC50 is less than 3.30.

Turning to `O=C(OC1CCCCC1)P(=O)(O)O` [disodium (cyclohexyloxy)carbonylphosphonate], the pIC50 was less than 3.30. Regarding `COC(=O)P(=O)(OC(C)C)OC(C)C` [methyl diisopropoxyphosphinecarboxylate oxide], the pIC50 was less than 3.30.

Consider `COP(=O)(OC)C(=O)Oc1ccc([N+](=O)[O-])cc1` [4-nitrophenyl dimethoxyphosphinecarboxylate oxide], for which the pIC50 is less than 3.30. In the case of `COC(=O)P(=O)(OC)Oc1ccc(C(C)=O)cc1` (stereo not given) [methyl (4-acetylphenoxy)(methoxy)phosphinecarboxylate oxide] it was less than 3.30; in that of `Cc1ccc(OP(=O)(Oc2ccc(C)cc2)C(=O)Oc2ccccc2)cc1` [phenyl bis(4-methylphenoxy)phosphinecarboxylate oxide], 4.36. Consider `O=C(O)P(=O)(O)OC12CC3CC(CC(C3)C1)C2` [disodium (1-adamantyloxy)(oxido)phosphinecarboxylate oxide], for which the pIC50 was less than 3.30. In turn, `COP(=O)(OC)C(=O)OCC1CCCC1` [cyclopentylmethyl dimethoxyphosphinecarboxylate oxide] had a pIC50 of less than 3.30. Compound `O=C(Oc1ccccc1)P(=O)(O)O` [disodium phenoxycarbonylphosphonate] had a negative-log IC50 (pIC50) of less than 3.30. In the case of `CCOC(=O)P(=O)(O)Oc1ccccc1` [sodium phenyl ethoxycarbonylphosphonate] it was less than 3.30.

The values above are taken from BindingDB's records for doi:10.1021/jm00356a028 (1983).
